# Laboratory results: EP2604265A1, “P2x7 antagonists as frontline or adjunctive treatment against status epilepticus” (Royal College of Surgeons in Ireland (RCSI), priority 2011, dated 2013)
# What was measured:
# IL-1β = test: Western blot of hippocampal IL-1β after SE; type: in vivo, mice; details: ipsilateral hippocampus, 24 h after KA
# Experimental: Adult male C57BL/6 mice (20-25 g) were obtained from Harlan UK (Blackthorn, UK). Mice were first anesthetized using isoflurane (3-5%) and maintained normothermic by means of a feedback-controlled heat blanket (Harvard Apparatus Ltd, Kent, UK). Mice were next placed in a stereotaxic frame and three partial craniectomies performed to affix cortical skull-mounted EEG electrodes (Bilaney Consultants Ltd, Sevenoaks, UK). EEG was recorded using a Grass Comet XL digital EEG (Medivent Ltd, Lucan, Ireland). A guide cannula was affixed (coordinates from Bregma: AP = 0.94; L = 2.85 mm) and the assembly fixed in place with dental cement. Anesthesia was then discontinued and freely moving mice were placed inside a clear perspex recording chamber. […]
# Western blotting was performed as previously described (Engel et al., 2010). […] Protein concentration was determined and then 20 or 50 µg samples boiled in gel-loading buffer and separated by 10, 12 or 15% sodium dodecyl sulphate-polyacrylamide gel electrophoresis. […] Gel band image densities were captured using a Fuji-film LAS-3000 and analyzed using Alpha-EaseFC4.0 software as described (Engel et al., 2010).
# P2Y receptors = details: selectivity of BBG; cited from earlier work
compound,measurement,setting,value
"CCOc1ccc(Nc2ccc(C(=C3C=CC(=[N+](CC)Cc4cccc(S(=O)(=O)[O-])c4)C=C3C)c3ccc(N(CC)Cc4cccc(S(=O)(=O)O)c4)cc3C)cc2)cc1 [BBG, Brilliant Blue G]",IL-1β induction after SE,IL-1β,significantly reduced
same,inhibition of some P2Y receptors,P2Y receptors,low micromolar range
